Assays:
[1] = target: T1, hM3R (Homo sapiens, UniProt P20309); assay: Radioligand competition binding, [3H]-scopolamine (N-methyl), CHO cell membranes, hM3R; conditions: mean ± SD, n = 3; membranes from CHO cells transfected with hM3R; read-out: Receptor Ki M3
T1 construct: expressed in transfected cells; host or cells: CHO cell membranes

[2] = target: T2, hM4R (Homo sapiens, UniProt P08173); assay: Radioligand competition binding, [3H]-scopolamine (N-methyl), CHO cell membranes, hM4R; conditions: mean ± SD, n = 3; membranes from CHO cells transfected with hM4R; read-out: Receptor Ki M4
T2 construct: expressed in transfected cells; host or cells: CHO cell membranes
T2 sequence (P08173 1-479): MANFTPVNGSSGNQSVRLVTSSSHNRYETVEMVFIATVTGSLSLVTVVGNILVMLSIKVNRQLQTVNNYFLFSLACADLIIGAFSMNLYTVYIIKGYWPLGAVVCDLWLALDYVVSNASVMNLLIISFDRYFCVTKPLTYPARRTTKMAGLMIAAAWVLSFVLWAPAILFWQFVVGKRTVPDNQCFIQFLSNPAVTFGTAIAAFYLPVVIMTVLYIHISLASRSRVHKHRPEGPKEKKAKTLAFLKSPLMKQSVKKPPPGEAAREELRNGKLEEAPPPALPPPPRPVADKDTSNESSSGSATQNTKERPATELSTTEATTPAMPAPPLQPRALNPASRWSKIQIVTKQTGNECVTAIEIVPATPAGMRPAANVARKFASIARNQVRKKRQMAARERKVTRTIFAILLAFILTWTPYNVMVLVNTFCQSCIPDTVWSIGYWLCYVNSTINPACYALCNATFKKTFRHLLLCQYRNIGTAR

[3] = target: T3, GLuc–M2R (Homo sapiens, UniProt P08172); assay: BRET-based ligand binding on HEK 293T cells expressing GLuc–M2R
T3 construct: expressed in transfected cells
T3 sequence (P08172 1-466): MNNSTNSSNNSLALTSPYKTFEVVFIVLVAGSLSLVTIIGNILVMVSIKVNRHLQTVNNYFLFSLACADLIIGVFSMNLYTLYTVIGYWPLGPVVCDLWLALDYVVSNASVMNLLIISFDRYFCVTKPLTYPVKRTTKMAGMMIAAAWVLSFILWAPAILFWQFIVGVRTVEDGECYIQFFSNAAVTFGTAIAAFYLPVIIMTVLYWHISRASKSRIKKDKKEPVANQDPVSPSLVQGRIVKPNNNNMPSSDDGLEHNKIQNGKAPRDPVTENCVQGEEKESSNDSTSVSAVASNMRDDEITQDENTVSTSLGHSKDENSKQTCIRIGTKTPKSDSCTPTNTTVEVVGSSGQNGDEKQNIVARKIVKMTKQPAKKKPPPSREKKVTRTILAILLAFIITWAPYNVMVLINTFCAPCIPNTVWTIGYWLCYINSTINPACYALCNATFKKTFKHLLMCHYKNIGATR

[4] = target: T4, M2R–Cerulean (Homo sapiens, UniProt P08172); assay: Confocal microscopy labeling of live HEK 293T cells; format: cell-based
T4 construct: expressed in transfected cells
T4 sequence (P08172 1-466): T3 sequence (P08172 1-466)

[5] = target: T5, HA–M2R (Homo sapiens, UniProt P08172); assay: Two-photon microscopy labeling of live HEK 293T cells; format: cell-based; conditions: 300 nM
T5 sequence (P08172 1-466): T3 sequence (P08172 1-466)
Excerpt: We examined live M2R cells with two-photon microscopy as well (Figure ). A labeling pattern similar to that observed in the confocal microscopy studies was identified. Figure A illustrates 33 labeling in HA–M2R-transfected cells. […] Similarly to the confocal images, no dye labeling was detected inside the cells. Figure B presents a microscopic image of nontransfected cells, showing a minor degree of autofluorescence. […] For additional two-photon images, see Figures S7 and S8. […]
were examined using a two-photon laser scanning system (Femto2D-uncage, Femtonics Ltd., Budapest, Hungary). The imaging laser (Chameleon Ultra II, Coherent Ltd., Santa Clara, CA, USA) was set to 820 nm and to 2-3% intensity. The excitation was delivered to the slices and the fluorescent signal was collected using an XLUMPlanFI 20x lens (Olympus, Tokyo, Japan).
Before image acquisition, cells were washed twice, and the medium was replaced to modified Krebs–Ringer solution. After capturing the zero-point image, we added 300 nM 33. After two minutes we captured images in 33 and infrared transmission channels. After 3 minutes, unbound 33 was removed by washing the cells with modified Krebs–Ringer solution, and the image […]
(§1) (1 picture or pasted object on this page, not shown here)

[6] = target: T5, HA–M2R; assay: STED nanoscopy labeling of living HEK 293T cells; format: cell-based; conditions: 300 nM
Excerpt: As STED microscopy is used for the deeper investigation of cellular processes even at the subcellular level, we challenged the fluorescent probe 33 in STED nanoscopy (Figure ). For STED, we used the same transfected cells as in the case of two-photon microscopy. Using the STED function and the available largest magnification objective, we observed improvement of optical resolution.
Figure S7. […] Scale bar:
20 μm. Representative images of two independent experiments are shown.
Figure S8. […] Scale bar:
50 μm. Representative images of two independent experiments are shown.
Confocal and STED microscopy
Confocal and STED images were acquired using a Leica TCS SP8 STED 3× inverse […]
well IBIDI chamber slides. The samples were scanned with a Leica HC PL Fluotar 20x/0.55 objective and a PMT detector. A 488 nm laser was used for the excitation of the fluorescent dye OG488 for the confocal imaging, and the spectral detection parameters were 500-550 nm.
as §1
Simultaneous transmission light imaging was used to detect the cells. For STED imaging, we used the same excitation laser and a Leica HC PL APO 100×/1.40 oil immersion objective and a Leica HyD detector, which was completed with a 660 nm STED (1.5 W, continuous wave) laser for depletion (at 1.17–2.48 × 109 W mm−2 nominal intensity with an output laser power of 1.2 W/32 nm × 32 nm pixel size). […]

T1 sequence (P20309 whole entry): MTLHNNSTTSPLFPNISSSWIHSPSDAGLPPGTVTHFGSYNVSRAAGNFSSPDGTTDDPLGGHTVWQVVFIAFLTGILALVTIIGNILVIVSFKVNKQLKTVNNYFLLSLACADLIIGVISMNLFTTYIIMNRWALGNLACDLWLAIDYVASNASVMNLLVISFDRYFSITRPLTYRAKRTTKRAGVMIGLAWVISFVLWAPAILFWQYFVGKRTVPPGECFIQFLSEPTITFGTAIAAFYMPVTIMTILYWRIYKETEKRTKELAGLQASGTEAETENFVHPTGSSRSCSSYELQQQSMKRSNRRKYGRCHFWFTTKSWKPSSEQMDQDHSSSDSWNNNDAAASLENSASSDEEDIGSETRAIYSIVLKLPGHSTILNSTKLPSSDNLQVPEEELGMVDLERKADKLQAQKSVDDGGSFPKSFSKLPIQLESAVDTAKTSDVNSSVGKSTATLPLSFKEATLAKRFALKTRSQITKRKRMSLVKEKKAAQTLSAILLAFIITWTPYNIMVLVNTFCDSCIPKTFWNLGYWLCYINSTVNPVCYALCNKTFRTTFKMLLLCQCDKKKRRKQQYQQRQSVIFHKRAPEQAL

**Q.** What does the source list for `O=C(CCOCCOCCNC(=O)c1ccc(-c2c3cc(F)c(=O)cc-3oc3cc(O)c(F)cc23)c(C(=O)O)c1)NCCOCCOCCNc1ccccc1C(=O)N1CCC(N2CCC(Cc3ccc(S(=O)(=O)c4cccc(Cl)c4)cc3)CC2)CC1` [Compound 33]?
**A.** Ki [1]: 55600 ± 3240 nM; Ki [2]: 54.1 ± 10.4 nM; Kd ([3]; 1-hour treatment, nonspecific with 100 μM atropine, read-out: dissociation constant (KD), equilibrium BRET-based ligand binding): 119 nM; kon ([3]; BRET-based kinetic ligand binding, read-out: association rate constant): 8060 M⁻¹ s⁻¹; koff ([3]; read-out: dissociation rate constant): 0.000867 s⁻¹; labeling of M2R–Cerulean-expressing cells ([4]; 300 nM, 3 min, live transfected HEK 293T): significant labeling; labeling of nontransfected cells ([4]; 300 nM, 3 min, nontransfected HEK 293T): no labeling was observed; labeling after atropine pretreatment ([4]; 100 μM atropine 5 min before 300 nM 33): no labeling; labeling of HA–M2R-transfected cells ([5]; excited at 820 nm, live HEK 293T): selectively only at the plasma membrane; labeling of nontransfected cells ([5]; nontransfected HEK 293T): no receptor labeling was observed; signal location in HA–M2R-expressing cells ([6]; living HEK 293T): concentrated in the membranes of cells; fluorescence in control (M2R-negative) cells ([6]; non-transfected HEK 293T): fluorescence is lacking
